In brackets after ≈: the same amount, converted by molar mass. Like-named read-outs stand apart in the source and are kept apart here. Blank lines part the entries; values can stand above or below the molecule they belong to.
Legend:
P. falciparum 3D7 = experiment: In vitro anti-malarial activity, SYBR-Green I fluorescence assay, strain 3D7; format: cell-based; settings: Plasmodium falciparum, 3D7, Erythrocyte, 72 h, read-out: Inhibition IC50 mean ± SD
Procedure: (§1) In the in vitro anti-malarial bioassay, strains of P. falciparum (chloroquine sensitive 3D7 and multidrug resistant Dd2) were kept in continuous culture in human erythrocytes in RPMI 1640 medium supplemented with 0.5% Albumax I/II and […] hypoxanthine according to the method previously described by Trager and Jensen. Synchronization of parasites was conducted using sorbitol treatment and parasitaemia was microscopically determined in Giemsa-stained smears.
(§2) In vitro anti-malarial activity assay was performed as previously described. Chloroquine and artemisinin were used as standard anti-malarial drugs, and equivalent free DQ used as a control and dissolved in dimethylsulfoxide (DMSO). Liposomes were diluted into a series of 10 µl different DQ concentrations for the in vitro assay. Each sample (10 µl) was mixed with 90 µl culture medium containing P. falciparum (0.5% parasitaemia and 2% haematocrit) and placed in 96-well microplates, which were incubated for 72 h with 5% CO2 at 37 °C. Lysis buffer (100 µl) containing 0.2 µl SYBR- Green I was then added to each well of the plate and incubated for additional 1.5 h at 37 °C. Fluorescence signal was detected at 488 nm (excitation) and 520 nm (emission) in a microplate reader (Synerfy H1, Bio Tek, USA). The intensity of fluorescence generated by the binding of SYBR-Green I to Plasmodium DNA is relative to the growth of parasites. IC50 values were derived from dose–response curves evaluated with software GraphPad.

P. falciparum Dd2 = experiment: In vitro anti-malarial activity, SYBR-Green I fluorescence assay, strain Dd2; format: cell-based; settings: Plasmodium falciparum, DD2, Erythrocyte, 72 h, read-out: Inhibition IC50 mean ± SD
Procedure: as §1, §2

[1] = design: method as in PMID 21914160; settings: cited from earlier work
Plasmodium parasites = test system: Plasmodium parasites; design: method as in PMID 28491482; settings: cited from earlier work
[2] = infected human red blood cells, DQ concentration for liposomes

IC50 (P. falciparum 3D7): 23.75 ± 0.06 nM | IC50 (P. falciparum Dd2): 185 ± 16.2 nM
SMILES: CCN(CC)CCCC(C)Nc1ccnc2cc(Cl)ccc12 (stereo not drawn) [Chloroquine]

SMILES: C[C@H]1[C@H](OC(=O)CCC(=O)O)O[C@@H]2O[C@@]3(C)CC[C@H]4[C@H](C)CC[C@@H]1[C@@]24OO3 [artesunate]
half-life ([1]; intravenous artesunate, parent AS): less than 15 min

IC50 (P. falciparum 3D7; [2]): 16.4 ± 5.8 nM | IC50 (P. falciparum Dd2; [2]): 18.5 ± 0.5 nM
SMILES: C[C@@H]1CC[C@H]2[C@@H](C)C(=O)O[C@@H]3O[C@@]4(C)CC[C@@H]1[C@]32OO4 [Artemisinin]

IC50 (P. falciparum 3D7; [2]): 1.63 ± 0.13 nM | IC50 (P. falciparum Dd2; [2]): 1.57 ± 0.49 nM
SMILES: CCCCCCCCCCOc1cc2c(O)c(C(=O)OCC)cnc2cc1OCC [DQ in DMSO, Decoquinate]
minimum inhibitory concentration (MIC) (Plasmodium parasites): 5.12 ng/mL (≈ 0.0123 µM)

SMILES: C[C@H]1[C@@H](O)O[C@@H]2O[C@@]3(C)CC[C@H]4[C@H](C)CC[C@@H]1[C@@]24OO3 [DHA, dihydro-artemisinin]
half-life ([1]; DHA formed from intravenous artesunate): 30 to 60 min

Source: article PMC8785525 (Malaria Journal, 2022)
